The values below come from patent US10730856B2, “Benzimidazole derivatives as EP4 ligands” (BAYER PHARMA AKTIENGESELLSCHAFT, priority 2013, dated 2020).

In general, IC50 refers to the concentration needed to halve the response being measured.

SMILES strings stand for the structures.

Sequence of human EP4 receptor (P35408 whole entry): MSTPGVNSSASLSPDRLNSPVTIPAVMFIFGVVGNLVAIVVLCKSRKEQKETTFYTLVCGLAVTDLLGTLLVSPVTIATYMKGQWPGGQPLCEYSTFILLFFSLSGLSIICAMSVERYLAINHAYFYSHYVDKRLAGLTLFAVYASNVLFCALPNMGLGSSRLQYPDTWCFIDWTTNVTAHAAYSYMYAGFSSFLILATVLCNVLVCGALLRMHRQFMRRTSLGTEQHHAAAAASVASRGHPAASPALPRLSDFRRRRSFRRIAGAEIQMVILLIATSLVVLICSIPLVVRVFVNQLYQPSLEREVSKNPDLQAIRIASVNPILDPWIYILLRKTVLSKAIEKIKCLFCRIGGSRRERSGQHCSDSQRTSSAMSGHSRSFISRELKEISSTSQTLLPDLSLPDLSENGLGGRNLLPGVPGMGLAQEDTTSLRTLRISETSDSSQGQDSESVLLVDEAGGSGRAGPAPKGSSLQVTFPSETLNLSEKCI

The first assay deals with human EP4 receptor (Homo sapiens (Human), UniProt P35408). The assay is described as follows: hEP4 antagonism test (cAMP HTRF, PGE2-stimulated hEP4-expressing cells). The note with it: PGE2-induced stimulation of cAMP production, cells expressing the EP4 receptor; read-out: inhibition of PGE2-induced cAMP production in cells expressing the EP4 receptor, IC50. The format is cell-based. The text has this:
The antagonistic action can be determined by an antagonism assay (see Example 3.2.1 of the biological examples).
3. Detection of the Antagonism of the Human Prostaglandin E2 (Subtype ER4) Receptor Signal
Detection of the Antagonization of the hEP4 Signal
Binding of the agonist prostaglandin E2 (PGE2) to the EP4 subtype of the human hPGE2-R (hEP4-R) induces activation of membrane-bound adenylate cyclases and thus the formation of cAMP. In the presence of the phosphodiesterase inhibitor IBMX, this cAMP accumulates intracellularly and is, after cell lysis, employed in a competitive detection method. In this method, it competes with a fluorescently labelled cAMP (cAMP-d2) for binding to an anti-cAMP antibody labelled with an Eu cryptate. In the absence of cellular cAMP, a complex between the Eu-cryptate-labelled anti-cAMP antibody and the cAMP-d2 molecule is formed which, after excitation at 337 nm, allows a FRET-based (FRET=fluorescence resonance energy transfer) enery transfer to the cAMP-d2 tracer and results in a long-lasting fluorescence signal (emission at 665 and 620 nm). This signal is time-resolved, i.e. measured in a suitable measuring device once the background fluorescence has subsided (time resolved; TR-FRET). Additionally, well-ratio determination (emission 665 nm/emission 620 nm*10 000) allows variations in the individual measurements in the added amounts of detection reagents to be normalized.
Administration of prostglandin E2 and increase of intracellular cAMP reduces the FRET signal which increases again if the substance is antagonistically active.
3.2.1 Test for Antagonism (Figures Per Well of a 384-Well Plate):
4 μl of a suspension of hEP4-expressing cells (2500 cells/well) already comprising the cAMP-D2 tracer are added to the substance solutions (50 nl; 100% DMSO) initially charged in a test plate. After 20 minutes of pre-incubation at room temperature, 2 μl of a 3×PGE2 solution are added and the mixture is incubated in the presence of an EC80 concentration of the agonist (0.4 nM) for a further 60 min at room temperature (volume: ˜6 μl), and the whole reaction is then stopped by addition of 2 μl of lysis buffer (volume: ˜8 μl). After a further 20 min at room temperature, the cell lysate is measured in accordance with the instructions of the manufacturer in a measuring instrument suitable for TR-FRET (compare cAMP HTRF assay kit: Cisbio International 62AM6PEJ high range)
Background: Time-resolved FRET reads energy transfer from a long-lived donor to a nearby acceptor.
As for `CCn1c2ccc(-c3nc4cc(C(=O)O)ccc4n3CCOC)cc2c2cc(C)cc(F)c21` [Example 10, 2-(9-Ethyl-8-fluoro-6-methyl-9H-carbazol-3-yl)-1-(2-methoxyethyl)-1H-benzimidazole-5-carboxylic Acid], the IC50 was around 1.5 nM.

The same assay, now with this note: hEP4-expressing cells, PGE2 at EC80 (0.4 nM), cAMP TR-FRET; read-out: hEP4 antagonization IC50.
`CCn1c2ccc(-c3nc4cc(C(=O)O)ccc4n3CCOC)cc2c2cc(C)cc(F)c21` [Example 10, 2-(9-Ethyl-8-fluoro-6-methyl-9H-carbazol-3-yl)-1-(2-methoxyethyl)-1H-benzimidazole-5-carboxylic Acid]: the IC50 turned out to be 1.5 nM.

For `CCn1c2ccc(-c3nc4c(C)c(C(=O)O)ccc4n3CCOC)cc2c2cc(C)cc(F)c21` [Example 4, 2-(9-Ethyl-8-fluoro-6-methyl-9H-carbazol-3-yl)-1-(2-methoxyethyl)-4-methyl-1H-benzimidazole-5-carboxylic Acid], the IC50 stood at 2.4 nM.

Take `CCn1c2ccc(-c3nc4c(F)c(C(=O)O)ccc4n3CCOC)cc2c2cc(C)cc(F)c21` [Example 8, 2-(9-Ethyl-8-fluoro-6-methyl-9H-carbazol-3-yl)-4-fluoro-1-(2-methoxyethyl)-1H-benzimidazole-5-carboxylic Acid]: the IC50 was 1.9 nM.

As for `CCn1c2ccc(-c3nc4c(C)c(C(=O)OC)ccc4n3CCOC)cc2c2cc(C)cc(Cl)c21` [Example 11, Methyl 2-(8-chloro-9-ethyl-6-methyl-9H-carbazol-3-yl)-1-(2-methoxyethyl)-4-methyl-1H-benzimidazole-5-carboxylate], the IC50 amounted to 47 nM.

As to `CCn1c2ccc(-c3nc4c(C)c(C(=O)O)ccc4n3CCOC)cc2c2cc(F)cc(C)c21` [Example 6, 2-(9-Ethyl-6-fluoro-8-methyl-9H-carbazol-3-yl)-1-(2-methoxyethyl)-4-methyl-1H-benzimidazole-5-carboxylic Acid], the IC50 was found to be 2 nM.

Take `CCn1c2ccc(Br)cc2c2cc(-c3nc4c(C)c(C(=O)O)ccc4n3CCOC)ccc21` [Example 2, 2-(6-Bromo-9-ethyl-9H-carbazol-3-yl)-1-(2-methoxyethyl)-4-methyl-1H-benzimidazole-5-carboxylic Acid]: the IC50 was 11 nM.

As to `CCn1c2ccc(-c3nc4c(C)c(C(=O)O)ccc4n3CCOC)cc2c2cc(C)cc(Cl)c21` [Example 12, 2-(8-Chloro-9-ethyl-6-methyl-9H-carbazol-3-yl)-1-(2-methoxyethyl)-4-methyl-1H-benzimidazole-5-carboxylic Acid], the IC50 came out at 2.8 nM.

In the case of `CCn1c2ccc(-c3nc4c(F)c(C(=O)O)ccc4n3CCOC)cc2c2cc(F)cc(C)c21` [Example 7, 2-(9-Ethyl-6-fluoro-8-methyl-9H-carbazol-3-yl)-4-fluoro-1-(2-methoxyethyl)-1H-benzimidazole-5-carboxylic Acid], the IC50 was 2.4 nM.

`CCn1c2ccc(Br)cc2c2cc(-c3nc4c(C)c(C(=O)OC)ccc4n3CCOC)ccc21` [Example 1, Methyl 2-(6-bromo-9-ethyl-9H-carbazol-3-yl)-1-(2-methoxyethyl)-4-methyl-1H-benzimidazole-5-carboxylate]: the IC50 is 32 nM.

As to `CCn1c2ccc(-c3nc4c(C)c(C(=O)OC)ccc4n3CCOC)cc2c2cc(C)cc(F)c21` [Example 3, Methyl 2-(9-ethyl-8-fluoro-6-methyl-9H-carbazol-3-yl)-1-(2-methoxyethyl)-4-methyl-1H-benzimidazole-5-carboxylate], the IC50 is 40 nM.

As to `CCOC(=O)c1ccc2c(c1)nc(-c1ccc3c(c1)c1cc(C)cc(F)c1n3CC)n2CCOC` [Example 9, Ethyl 2-(9-ethyl-8-fluoro-6-methyl-9H-carbazol-3-yl)-1-(2-methoxyethyl)-1H-benzimidazole-5-carboxylate], the IC50 was 62 nM.
